Assay results taken from patent US8288435B2, “2-aza-bicyclo[3.1.0]hexane derivatives as orexin receptor antagonists” (Actelion Pharmaceuticals Ltd., priority 2006, dated 2012).
pIC50: −log10 of the molar value.

Legend:
human orexin-2 receptor = biological target: T1, human orexin-2 receptor (Homo sapiens, UniProt O43614); assay: Intracellular calcium measurements (FLIPR), orexin receptor antagonistic activity, OX2; assay type: cell-based; details: CHO cells expressing the human orexin-2 receptor, 10 nM orexin-A as agonist
T1 construct: expressed in transfected cells; host or cells: CHO (Chinese hamster ovary) cells, G418 selection
T1 sequence (O43614 1-444): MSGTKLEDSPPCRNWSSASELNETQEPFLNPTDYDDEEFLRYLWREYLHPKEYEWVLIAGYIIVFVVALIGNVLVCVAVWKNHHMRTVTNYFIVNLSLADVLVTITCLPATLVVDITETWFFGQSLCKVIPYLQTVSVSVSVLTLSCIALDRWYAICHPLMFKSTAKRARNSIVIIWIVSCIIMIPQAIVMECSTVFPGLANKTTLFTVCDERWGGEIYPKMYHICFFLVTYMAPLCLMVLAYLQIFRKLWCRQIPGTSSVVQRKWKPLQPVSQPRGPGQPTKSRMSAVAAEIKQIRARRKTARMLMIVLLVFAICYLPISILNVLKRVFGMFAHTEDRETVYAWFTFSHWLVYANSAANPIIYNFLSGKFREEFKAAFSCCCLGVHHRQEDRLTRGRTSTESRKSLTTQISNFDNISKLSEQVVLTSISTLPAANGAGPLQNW
Protocol: (§1) The orexin receptor antagonistic activity of the compounds of formula (I) is determined in accordance with the following experimental method.
(§2) Intracellular Calcium Measurements:
(§3) Chinese hamster ovary (CHO) cells expressing the human orexin-1 receptor and the human orexin-2 receptor, respectively, are grown in culture medium (Ham F-12 with L-Glutamine) containing 300 μg/ml G418, 100 U/ml penicillin, 100 μg/ml streptomycin and 10% inactivated fetal calf serum (FCS). The cells are seeded at 80′000 cells/well into 96-well black clear bottom sterile plates (Costar) which have been precoated with 1% gelatine in Hanks' Balanced Salt Solution (HBSS). All reagents are from Gibco BRL. The seeded plates are incubated overnight at 37° C. in 5% CO2.
(§4) Human orexin-A as an agonist is prepared as 1 mM stock solution in MeOH:water (1:1), diluted in HBSS containing 0.1% bovine serum albumin (BSA) and 2 mM HEPES for use in the assay at a final concentration of 10 nM.
(§5) Antagonists are prepared as 10 mM stock solution in DMSO, then diluted in 96-well plates, first in DMSO, then in HBSS containing 0.1% bovine serum albumin (BSA) and 2 mM HEPES.
(§6) On the day of the assay, 100 μl of loading medium (HBSS containing 1% FCS, 2 mM HEPES, 5 mM probenecid (Sigma) and 3 μM of the fluorescent calcium indicator fluo-3 AM (1 mM stock solution in DMSO with 10% pluronic acid) (Molecular Probes) is added to each well.
(§7) The 96-well plates are incubated for 60 min at 37° C. in 5% CO2. The loading solution is then aspirated and cells are washed 3 times with 200 μl HBSS containing 2.5 mM probenecid, 0.1% BSA, 2 mM HEPES. 100 μl of that same buffer is left in each well.
(§8) Within the Fluorescent Imaging Plate Reader (FLIPR, Molecular Devices), antagonists are added to the plate in a volume of 50 μl, incubated for 20 min and finally 100 μl of agonist is added. Fluorescence is measured for each well at 1 second intervals, and the height of each fluorescence peak is compared to the height of the fluorescence peak induced by 10 nM orexin-A with buffer in place of antagonist. For each antagonist, IC50 value (the concentration of compound needed to inhibit 50% of the agonistic response) is determined.

human orexin-1 receptor = biological target: T2, human orexin-1 receptor (Homo sapiens, UniProt O43613); assay: Intracellular calcium measurements (FLIPR), orexin receptor antagonistic activity, OX1; assay type: cell-based; details: CHO cells expressing the human orexin-1 receptor, 10 nM orexin-A as agonist
T2 construct: expressed in transfected cells; host or cells: CHO (Chinese hamster ovary) cells, G418 selection
T2 sequence (O43613 1-425): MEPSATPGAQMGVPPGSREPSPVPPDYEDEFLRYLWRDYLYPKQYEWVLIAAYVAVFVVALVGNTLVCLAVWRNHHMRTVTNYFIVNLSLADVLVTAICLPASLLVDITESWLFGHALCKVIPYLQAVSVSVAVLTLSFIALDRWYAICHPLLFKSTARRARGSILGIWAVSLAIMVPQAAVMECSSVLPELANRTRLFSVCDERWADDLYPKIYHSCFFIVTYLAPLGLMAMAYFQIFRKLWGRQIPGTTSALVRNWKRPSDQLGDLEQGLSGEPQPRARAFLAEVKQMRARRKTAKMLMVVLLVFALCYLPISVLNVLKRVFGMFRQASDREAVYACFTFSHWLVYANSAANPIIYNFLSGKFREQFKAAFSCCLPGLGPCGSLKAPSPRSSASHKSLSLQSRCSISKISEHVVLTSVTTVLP
Protocol: as §1, §2, §3, §4, §5, §6, §7, §8

pIC50 (human orexin-2 receptor) | pIC50 (human orexin-1 receptor) | SMILES
7.11 | 7.35 | O=C(NC[C@@H]1C[C@@H]2C[C@@H]2N1C(=O)c1ccccc1-c1cccc(Cl)c1)c1cccc2occc12 [Example 8, benzofuran-4-carboxylic acid [(1S,3S,5S)-2-(3′-chloro-biphenyl-2-carbonyl)-2-aza-bicyclo[3.1.0]hex-3-ylmethyl]-amide]
7.62 | 8.15 | Cc1cccc(-c2sc(C)nc2C(=O)N2[C@H](CNC(=O)c3c(C)nc4sccn34)C[C@@H]3C[C@@H]32)c1 [Example 11, 6-methyl-imidazo[2,1-b]thiazole-5-carboxylic acid [(1S,3S,5S)-2-(2-methyl-5-m-tolyl-thiazole-4-carbonyl)-2-aza-bicyclo[3.1.0]hex-3-ylmethyl]-amide]
7.22 | 7.82 | Cc1nc2sccn2c1C(=O)NC[C@@H]1C[C@@H]2C[C@@H]2N1C(=O)c1ccccc1-c1cccc(Cl)c1 [Example 17, 6-methyl-imidazo[2,1-b]thiazole-5-carboxylic acid [(1S,3S,5S)-2-(3′-chloro-biphenyl-2-carbonyl)-2-aza-bicyclo[3.1.0]hex-3-ylmethyl]-amide]
7.85 | 7.10 | Nc1nc(C(=O)N2[C@H](CNC(=O)c3cccc4c3OCCO4)C[C@@H]3C[C@@H]32)c(-c2cccc(F)c2)s1 [Example 25, 2,3-dihydro-benzo[1,4]dioxine-5-carboxylic acid {(1S,3S,5S)-2-[2-amino-5-(3-fluoro-phenyl)-thiazole-4-carbonyl]-2-aza-bicyclo[3.1.0]hex-3-ylmethyl}-amide]
7.03 | 6.89 | Cc1cccc(-c2sc(N)nc2C(=O)N2[C@H](CNC(=O)c3c(C)noc3C)C[C@@H]3C[C@@H]32)c1 [Example 33, 3,5-dimethyl-isoxazole-4-carboxylic acid [(1S,3S,5S)-2-(2-amino-5-m-tolyl-thiazole-4-carbonyl)-2-aza-bicyclo[3.1.0]hex-3-ylmethyl]-amide]
6.45 | 6.98 | Cc1nc(C(=O)N2[C@H](CNC(=O)c3nccc4ccccc34)C[C@@H]3C[C@@H]32)c(-c2cccc(F)c2)s1 [Example 38, isoquinoline-1-carboxylic acid {(1S,3S,5S)-2-[5-(3-fluoro-phenyl)-2-methyl-thiazole-4-carbonyl]-2-aza-bicyclo[3.1.0]hex-3-ylmethyl}-amide]
7.96 | 7.92 | Nc1nc(C(=O)N2[C@H](CNC(=O)c3cnc4sccn34)C[C@@H]3C[C@@H]32)c(-c2cccc(F)c2)s1 [Example 57, imidazo[2,1-b]thiazole-5-carboxylic acid {(1S,3S,5S)-2-[2-amino-5-(3-fluoro-phenyl)-thiazole-4-carbonyl]-2-aza-bicyclo[3.1.0]hex-3-ylmethyl}-amide]
7.40 | 7.85 | Cc1cccc(-c2sc(C)nc2C(=O)N2[C@H](CNC(=O)c3ccc4ccccc4n3)C[C@@H]3C[C@@H]32)c1 [Example 93, Quinoline-2-carboxylic acid [(1S,3S,5S)-2-(2-methyl-5-m-tolyl-thiazole-4-carbonyl)-2-aza-bicyclo[3.1.0]hex-3-ylmethyl]-amide]
7.82 | 7.38 | CCn1cc(C(=O)NC[C@@H]2C[C@@H]3C[C@@H]3N2C(=O)c2nc(C)sc2-c2cccc(C)c2)c(C)n1 [Example 99, 1-Ethyl-3-methyl-1H-pyrazole-4-carboxylic acid [(1S,3S,5S)-2-(2-methyl-5-m-tolyl-thiazole-4-carbonyl)-2-aza-bicyclo[3.1.0]hex-3-ylmethyl]-amide]
7.24 | 7.38 | Cc1cccc(-c2sc(C)nc2C(=O)N2[C@H](CNC(=O)c3cccc(C(F)(F)F)c3)C[C@@H]3C[C@@H]32)c1 [Example 101, N-[(1S,3S,5S)-2-(2-Methyl-5-m-tolyl-thiazole-4-carbonyl)-2-aza-bicyclo[3.1.0]hex-3-ylmethyl]-3-trifluoromethyl-benzamide]
7.13 | 5.70 | COc1ccc(C(=O)NC[C@@H]2C[C@@H]3C[C@@H]3N2C(=O)c2nc(C)sc2-c2cccc(C)c2)cc1OC [Example 123, 3,4-Dimethoxy-N-[(1S,3S,5S)-2-(2-methyl-5-m-tolyl-thiazole-4-carbonyl)-2-aza-bicyclo[3.1.0]hex-3-ylmethyl]-benzamide]
6.89 | 7.12 | Cc1cccc(-c2sc(C)nc2C(=O)N2[C@H](CNC(=O)c3cccc4c3OCCN4C)C[C@@H]3C[C@@H]32)c1 [Example 130, 4-Methyl-3,4-dihydro-2H-benzo[1,4]oxazine-8-carboxylic acid [(1S,3S,5S)-2-(2-methyl-5-m-tolyl-thiazole-4-carbonyl)-2-aza-bicyclo[3.1.0]hex-3-ylmethyl]-amide]
7.13 | 7.29 | Cc1nc(C(=O)N2[C@H](CNC(=O)c3noc4ccccc34)C[C@@H]3C[C@@H]32)c(-c2cccc(Cl)c2)s1 [Example 147, Benzo[d]isoxazole-3-carboxylic acid {(1S,3S,5S)-2-[5-(3-chloro-phenyl)-2-methyl-thiazole-4-carbonyl]-2-aza-bicyclo[3.1.0]hex-3-ylmethyl}-amide]
7.24 | 7.21 | Cc1cccc(-c2sc(N)nc2C(=O)N2[C@H](CNC(=O)c3cccc(Br)c3)C[C@@H]3C[C@@H]32)c1 [Example 163, N-[(1S,3S,5S)-2-(2-Amino-5-m-tolyl-thiazole-4-carbonyl)-2-aza-bicyclo[3.1.0]hex-3-ylmethyl]-3-bromo-benzamide]
7.24 | 7.35 | Cc1cccc(-c2sc(N)nc2C(=O)N2[C@H](CNC(=O)c3cccc4cccnc34)C[C@@H]3C[C@@H]32)c1 [Example 176, Quinoline-8-carboxylic acid [(1S,3S,5S)-2-(2-amino-5-m-tolyl-thiazole-4-carbonyl)-2-aza-bicyclo[3.1.0]hex-3-ylmethyl]-amide]
7.46 | 6.96 | Cc1nc(C(=O)N2[C@H](CNC(=O)c3cccc4c3CCO4)C[C@@H]3C[C@@H]32)c(-c2ccc(Br)cc2)s1 [Example 192, 2,3-Dihydro-benzofuran-4-carboxylic acid {(1S,3S,5S)-2-[5-(4-bromo-phenyl)-2-methyl-thiazole-4-carbonyl]-2-aza-bicyclo[3.1.0]hex-3-ylmethyl}-amide]
7.39 | 6.86 | Cc1nc(C(=O)N2[C@H](CNC(=O)c3cccc4c3CCO4)C[C@@H]3C[C@@H]32)c(-c2cccc(F)c2C)s1 [Example 199, 2,3-Dihydro-benzofuran-4-carboxylic acid {(1S,3S,5S)-2-[5-(3-fluoro-2-methyl-phenyl)-2-methyl-thiazole-4-carbonyl]-2-aza-bicyclo[3.1.0]hex-3-ylmethyl}-amide]
7.47 | 7.24 | O=C(NC[C@@H]1C[C@@H]2C[C@@H]2N1C(=O)c1nc(C2CC2)sc1-c1ccccc1F)c1cccc2c1CCO2 [Example 208, 2,3-Dihydro-benzofuran-4-carboxylic acid {(1S,3S,5S)-2-[2-cyclopropyl-5-(2-fluoro-phenyl)-thiazole-4-carbonyl]-2-aza-bicyclo[3.1.0]hex-3-ylmethyl}-amide]
